The values below come from patent US20240246931A1, “COMPOUNDS AS PD1/PD-L1 INHIBITORS AND METHODS THEREOF” (JUBILANT PRODEL LLC, priority 2021, published 2024).

pIC50: −log10 of the molar value.

Broadly, the pIC50 is the IC50 on a negative log10 scale, so that one unit is a factor of ten. A lower pIC50 goes with a high IC50.

This assay concerns the target T1, PD-1/PD-L1 interaction (Homo sapiens, UniProt Q9NZQ7).
T1 construct: purchased CisBio 63ADK000CPAPEG
Description: PD-1/PD-L1 HTRF binding assay (CisBio kit). Conditions: HTRF PD1/PD-L1 inhibition assay. The protocol: PD-L1 Enzyme Assay: Homogenous Time-Resolved Fluorescence (HTRF) Binding Assay
All binding studies were performed using PD-1/PD-L1 Binding Assay Kit from CisBio (Catalog #63ADK000CPAPEG), according to the manufacturer's protocol. The interaction between Tag1-PD-1 and […] was detected by anti-Tag1-Eu^3+ (HTRF donor) and anti-Tag2-XL665 (HTRF acceptor). When the donor and acceptor antibodies were brought to close proximity due to PD-1 and PD-L1 binding, excitation of the donor antibody triggered fluorescent resonance energy transfer (FRET) towards the acceptor antibody, which in turn emitted specifically at 665 nm. This specific signal is positively proportional to PD-1/PD-L1 interaction. The compounds blocking PD-1/PD-L1 interaction will cause a reduction in HTRF signal. The necessary reagents were mixed in the following order: 2 μL compounds (or diluents buffer), 4 μL PD-L1 protein, 4 μL PD-1 protein. After an incubation of 15 minutes, 5 μL of anti-Tag1-Eu^3+ and 5 μL of anti-Tag2-XL665 were added. The plate was sealed and incubated at room temperature for 1 h. The fluorescence emission was read at two different wavelengths (665 nm and 620 nm) on a BMG PheraStar® multi-plate reader.
Results were calculated from the 665 nm and 620 nm fluorescence signal and expressed in HTRF ratio=(665 nm/620 nm)×10^4.
Compounds having IC50<100 nM are designated as “A”; 100-500 nM are designated as “B”; and >500 nM are designated as “C” respectively.

T1 sequence (Q9NZQ7 19-238 limits assumed): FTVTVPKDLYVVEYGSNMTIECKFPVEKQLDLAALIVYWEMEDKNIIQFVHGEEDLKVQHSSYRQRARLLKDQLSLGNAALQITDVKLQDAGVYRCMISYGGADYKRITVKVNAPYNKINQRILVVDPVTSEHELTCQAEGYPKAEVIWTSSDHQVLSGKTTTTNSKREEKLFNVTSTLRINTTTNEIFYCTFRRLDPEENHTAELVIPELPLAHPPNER

`Cc1c(COc2cc(OCc3cncc(C#N)c3)c(CN3CC(F)(F)CCC3CO)c3c2CCC3)cccc1-c1ccccc1` (centres unmarked) [Example 12, 5-(((4-((5,5-difluoro-2-(hydroxymethyl)piperidin-1-yl)methyl)-7-((2-methyl-[1,1′-biphenyl]-3-yl)methoxy)-2,3-dihydro-1H-inden-5-yl)oxy)methyl)nicotinonitrile] showed a negative logarithm of the IC50 (pIC50) of 6.30 to 7.00. Under `Cc1c(COc2cc(OCc3cncc(C#N)c3)c(CN3CCN(C)CC3CO)c3c2CCC3)cccc1-c1ccccc1` (centres unmarked) [Example 13, 5-(((4-((2-(hydroxymethyl)-4-methylpiperazin-1-yl)methyl)-7-((2-methyl-[1,1′-biphenyl]-3-yl)methoxy)-2,3-dihydro-1H-inden-5-yl)oxy)methyl)nicotinonitrile] stands over 7.00; under `Cc1c(COc2cc(OCc3cncc(C#N)c3)c(CN3CC(CO)C3)c3c2CCC3)cccc1-c1ccccc1` [Example 14, 5-(((4-((3-(hydroxymethyl)azetidin-1-yl)methyl)-7-((2-methyl-[1,1′-biphenyl]-3-yl)methoxy)-2,3-dihydro-1H-inden-5-yl)oxy)methyl)nicotinonitrile], over 7.00. `Cc1c(COc2cc(OCc3cncc(C#N)c3)c(CN3CC[C@@H](CO)C3)c3c2CCC3)cccc1-c1ccccc1` [Example 15, (R)-5-(((4-((3-(hydroxymethyl)pyrrolidin-1-yl)methyl)-7-((2-methyl-[1,1′-biphenyl]-3-yl)methoxy)-2,3-dihydro-1H-inden-5-yl)oxy)methyl)nicotinonitrile] showed a pIC50 of over 7.00. `Cc1c(COc2cc(OCc3cncc(C#N)c3)c(CN3CCC[C@H](CO)C3)c3c2CCC3)cccc1-c1ccccc1` [Example 16, (S)-5-(((4-((3-(hydroxymethyl)piperidin-1-yl)methyl)-7-((2-methyl-[1,1′-biphenyl]-3-yl)methoxy)-2,3-dihydro-1H-inden-5-yl)oxy)methyl)nicotinonitrile] gave a pIC50 of over 7.00. As to `Cc1c(COc2cc(OCc3cncc(C#N)c3)c(CN3CCC(CO)CC3)c3c2CCC3)cccc1-c1ccccc1` [Example 17, 5-(((4-((4-(hydroxymethyl)piperidin-1-yl)methyl)-7-((2-methyl-[1,1′-biphenyl]-3-yl)methoxy)-2,3-dihydro-1H-inden-5-yl)oxy)methyl)nicotinonitrile], the pIC50 was over 7.00.

The compound `Cc1c(COc2cc(OCc3cncc(C#N)c3)c(CN3CC[C@H](CO)C3)c3c2CCC3)cccc1-c1ccccc1` [Example 18, (S)-5-(((4-((3-(hydroxymethyl)pyrrolidin-1-yl)methyl)-7-((2-methyl-[1,1′-biphenyl]-3-yl)methoxy)-2,3-dihydro-1H-inden-5-yl)oxy)methyl)nicotinonitrile] gave a pIC50 of over 7.00. `Cc1c(COc2cc(OCc3cncc(C#N)c3)c(CN3CCC[C@@H]3CO)c3c2CCC3)cccc1-c1ccccc1` [Example 19, (R)-5-(((4-((2-(hydroxymethyl)pyrrolidin-1-yl)methyl)-7-((2-methyl-[1,1′-biphenyl]-3-yl)methoxy)-2,3-dihydro-1H-inden-5-yl)oxy)methyl)nicotinonitrile] showed a pIC50 of over 7.00. `Cc1c(COc2cc(OCc3cncc(C#N)c3)c(CN3CCCCCC3CO)c3c2CCC3)cccc1-c1ccccc1` (centres unmarked) [Example 20, 5-(((4-((2-(hydroxymethyl)azepan-1-yl)methyl)-7-((2-methyl-[1,1′-biphenyl]-3-yl)methoxy)-2,3-dihydro-1H-inden-5-yl)oxy)methyl)nicotinonitrile] showed a pIC50 of over 7.00. `Cc1c(COc2cc(OCc3cncc(C#N)c3)c(CN3CCC[C@@H](CO)C3)c3c2CCC3)cccc1-c1ccccc1` [Example 21, (R)-5-(((4-((3-(hydroxymethyl)piperidin-1-yl)methyl)-7-((2-methyl-[1,1′-biphenyl]-3-yl)methoxy)-2,3-dihydro-1H-inden-5-yl)oxy)methyl)nicotinonitrile 2,2,2-trifluoroacetate] had a pIC50 of over 7.00. In the case of `Cc1c(COc2cc(OCc3cncc(C#N)c3)c(CN3CCCCC3(CO)CO)c3c2CCC3)cccc1-c1ccccc1` [Example 22, 5-(((4-((2,2-bis(hydroxymethyl)piperidin-1-yl)methyl)-7-((2-methyl-[1,1′-biphenyl]-3-yl)methoxy)-2,3-dihydro-1H-inden-5-yl)oxy)methyl)nicotinonitrile 2,2,2-trifluoroacetate] it was over 7.00; in that of `Cc1c(COc2cc(OCCCCF)c(CN3CC[C@H]3CO)c3c2CCC3)cccc1-c1ccccc1` [Example 33, (S)-(1-((5-(4-fluorobutoxy)-7-((2-methyl-[1,1′-biphenyl]-3-yl)methoxy)-2,3-dihydro-1H-inden-4-yl)methyl)azetidin-2-yl)methanol], 6.30 to 7.00. For `N#Cc1cccc(COc2cc(OCc3cccc(-c4ccccc4)c3C#N)c3c(c2CN2CCCC4CC42CO)CCC3)c1` (centres unmarked) [Example 36, 3-(((6-((3-cyanobenzyl)oxy)-7-((1-(hydroxymethyl)-2-azabicyclo[4.1.0]heptan-2-yl)methyl)-2,3-dihydro-1H-inden-4-yl)oxy)methyl)-[1,1′-biphenyl]-2-carbonitrile], the pIC50 was 6.30 to 7.00. Under `Cc1c(COc2cc(OCc3cnn(C)c3)c(CN3CCCC[C@H]3CO)c3c2CCC3)cccc1-c1ccccc1` [Example 39, (S)-(1-((5-((1-methyl-1H-pyrazol-4-yl)methoxy)-7-((2-methyl-[1,1′-biphenyl]-3-yl)methoxy)-2,3-dihydro-1H-inden-4-yl)methyl)piperidin-2-yl)methanol] stands 6.30 to 7.00; under `Cc1c(COc2cc(OCc3cscn3)c(CN3CCC3CO)c3c2CCC3)cccc1-c1ccccc1` (centres unmarked) [Example 40, (1-((7-((2-methyl-[1,1′-biphenyl]-3-yl)methoxy)-5-(thiazol-4-ylmethoxy)-2,3-dihydro-1H-inden-4-yl)methyl)azetidin-2-yl)methanol], 6.30 to 7.00; under `Cc1c(COc2cc(OCc3cn(C)cn3)c(CN3CCC3CO)c3c2CCC3)cccc1-c1ccccc1` (centres unmarked) [Example 41, (1-((5-((1-methyl-1H-imidazol-4-yl)methoxy)-7-((2-methyl-[1,1′-biphenyl]-3-yl)methoxy)-2,3-dihydro-1H-inden-4-yl)methyl)azetidin-2-yl)methanol], 6.30 to 7.00. In the case of `Cc1c(COc2cc(OCc3cncnc3)c(CN3CCC3CO)c3c2CCC3)cccc1-c1ccccc1` (centres unmarked) [Example 42, (1-((7-((2-methyl-[1,1′-biphenyl]-3-yl)methoxy)-5-(pyrimidin-5-ylmethoxy)-2,3-dihydro-1H-inden-4-yl)methyl)azetidin-2-yl)methanol] it was over 7.00; in that of `Cc1c(COc2cc(OCc3cocn3)c(CN3CCC3CO)c3c2CCC3)cccc1-c1ccccc1` (centres unmarked) [Example 43, (1-((7-((2-methyl-[1,1′-biphenyl]-3-yl)methoxy)-5-(oxazol-4-ylmethoxy)-2,3-dihydro-1H-inden-4-yl)methyl)azetidin-2-yl)methanol], 6.30 to 7.00; in that of `Cc1c(COc2cc(OCc3cc(C#N)c[n+]([O-])c3)c(CN3CCCC[C@H]3CO)c3c2CCC3)cccc1-c1ccccc1` [Example 45, (S)-3-cyano-5-(((4-((2-(hydroxymethyl)piperidin-1-yl)methyl)-7-((2-methyl-[1,1′-biphenyl]-3-yl)methoxy)-2,3-dihydro-1H-inden-5-yl)oxy)methyl)pyridine 1-oxide], over 7.00. Under `Cc1c(COc2cc(OCc3cncc(C#N)c3)c(CN3CCCC[C@H]3CO)c3c2CCC3)cccc1-c1ccc(F)cc1` [Example 46, (S)-5-(((7-((4′-fluoro-2-methyl-[1,1′-biphenyl]-3-yl)methoxy)-4-((2-(hydroxymethyl)piperidin-1-yl)methyl)-2,3-dihydro-1H-inden-5-yl)oxy)methyl)nicotinonitrile] stands 6.30 to 7.00; under `Cc1c(COc2cc(OCc3cncc(C#N)c3)c(CN3CC4(CC4)C[C@H]3CO)c3c2CCC3)cccc1-c1ccc(F)cc1` [Example 47, (S)-5-(((7-((4′-fluoro-2-methyl-[1,1′-biphenyl]-3-yl)methoxy)-4-((6-(hydroxymethyl)-5-azaspiro[2.4]heptan-5-yl)methyl)-2,3-dihydro-1H-inden-5-yl)oxy)methyl)nicotinonitrile], 6.30 to 7.00; under `Cc1c(COc2cc(OCc3cncc(C#N)c3)c(CN3CCC[C@H]3CO)c3c2CCC3)cccc1-c1ccc(F)cc1` [Example 48, (S)-5-(((7-((4′-fluoro-2-methyl-[1,1′-biphenyl]-3-yl)methoxy)-4-((2-(hydroxymethyl)pyrrolidin-1-yl)methyl)-2,3-dihydro-1H-inden-5-yl)oxy)methyl)nicotinonitrile], 6.30 to 7.00. `Cc1c(COc2cc(OCc3cncc(C#N)c3)c(C(=O)NC3CCN(C)CC3)c3c2CCC3)cccc1-c1ccccc1` [Example 49, 5-((5-cyanopyridin-3-yl)methoxy)-7-((2-methyl-[1,1′-biphenyl]-3-yl)methoxy)-N-(1-methylpiperidin-4-yl)-2,3-dihydro-1H-indene-4-carboxamide] showed a pIC50 of over 7.00.
